Data from patent US20240391958A1, “KEANUMYCINS AND USES THEREOF IN MEDICINE AND PLANT PROTECTION” (Leibniz-Institut für Naturstoff-Forschung und …, priority 2023, published 2024).
Converted amounts (≈) assume the structure as drawn. Where a SMILES comes first, the peptide text is derived from it. Bridges are numbered along the chain shown (N, C = ends). [ ]: non-standard residue; d: D form. The star is where a group is joined. X1 = CCCCCCCCCCCC[C@@H](O)[C@@H](O)CC(=O)*; Asp(3S-OH) = N[C@H](C(=O)O)[C@H](O)C(=O)O; Thr(4-Cl) = N[C@H](C(=O)O)[C@H](O)CCl; aThr = C[C@H](O)[C@H](N)C(=O)O; d(hSer) = N[C@H](CCO)C(=O)O; dDab = NCC[C@@H](N)C(=O)O; Dab = NCC[C@H](N)C(=O)O; Dhb = C/C=C(\N)C(=O)O

How the values were obtained:
[1] = system: HAC1 mRNA; assay: Splicing of HAC1 mRNA (Ire1-Hac1 UPR pathway); type: cell-based, Candida albicans; conditions: compared to positive tunicamycin control
Text: (§1) To see if keanumycin A triggers the same canonical Ire1-Hac1 UPR pathway, the inventors looked at the splicing of HAC1 mRNA, which is regulated by Ire1. […] Since no other specific signaling pathway stood out, the inventors screened homozygous knockout mutants for significant growth differences in the absence and presence of a sublethal concentration of the NRLP. […] PLB5 is an important gene for phospholipid homeostasis and PMT6 codes for a transmembrane protein mannosyltransferase, which is involved in the construction of the outmost mannan cell wall layer in C. albicans.

[2] = system: C. albicans strain SC5314; assay: MIC against C. albicans SC5314; type: cell-based; conditions: Candida albicans
[3] = system: C. albicans; assay: Fungal viability in vaginal epithelial infection model (XTT); type: cell-based, Candida albicans; conditions: XTT absorbance after 24-hour infection, N=2
Protocol: (§2) FIGS. 7A-7B show in 7A) Keanumycin A protected human vaginal epithelial cells in C. albicans infection model. Micrograph depicts % damage to human vaginal epithelial cells A431 (y-axis) in the presence of keanumycin A at varied concentrations (x-axis) as estimated by LDH cytotoxicity assay after 24 hours of infection or treatment. LDH absorbance was normalized to C. albicans infected and uninfected controls. Keanumycin A protected vaginal cells from damage by C. albicans at a narrow concentration range from 4-8 μg/ml (black line). Keanumycin A was toxic to vaginal cells at concentrations above 8 μg/ml (grey line) (N=3). […] Vaginal epithelial cells were lysed after 24-hour infection, and fungal viability was measured by XTT absorbance, normalized to C. albicans infected and uninfected controls (N=2) […]
(§3) Overnight culture of C. albicans strain SC5314 grown in YPD at 30° C., shaking at 180 RPM was harvested, washed twice with PBS. […] Epithelial damage was measured 24 hours after infection by collecting and diluting the supernatant 1:10 in PBS and measuring the lactate dehydrogenase (LDH) activity with the Roche Cytotoxicity Detection Kit (LDH) as per manufacturer's instructions. The absorbance (490 nm) values are represented as percentage damage, which is normalized to the low control, where medium only is 0% damage, and high control, where C. albicans infection is 100% damage. […]

[4] = system: C. albicans; assay: Membrane permeabilization assay using SYTOX Green; type: cell-based, Candida albicans; conditions: 4 μg mL-1 in 1% DMSO
Text: Only isolated cells are stained, which can be explained by the fact that the dye can also be used to distinguish dead from live cells. Scale bar=100 μm.
To finally examine if keanumycin A is a membrane-active compound, the inventors performed a membrane permeabilization assay using SYTOX Green (FIG. 6). As a cell-impermeant dye, SYTOX Green enters the cell upon loss of membrane integrity and binds to DNA, which results in fluorescently stained cells. […] Thus, the keanumycins are membrane-active compounds that disturb the structure of the fungal […].

[5] = system: human vaginal epithelial cells A431 infected with C. albicans; assay: C. albicans vaginal epithelial infection model, epithelial damage (LDH); type: cell-based; conditions: 24 hours of infection, tested 1-16 μg/ml
Protocol: as §2, §3

[6] = system: Enterococcus faecalis (VRE) 1528; assay: Disk diffusion test; type: cell-based; conditions: 1 mg/mL in MeOH, 50 μL per 9 mm hole, 24 h 37 °C
Protocol: (§4) A qualitative screen of different microorganisms was performed using a disk diffusion test. Each microorganism was plated on Mueller Hinton agar plates and 9 mm holes were punched out. The respective compounds were dissolved in the indicated solvent to yield solutions of specified concentrations. 50 μL of the respective solutions were placed in each hole. The plates were incubated for 24 h at 37° C. After incubation, the size of inhibition zones was determined.

[7] = system: Candida albicans; assay: Disk diffusion test; type: cell-based; conditions: 1 mg/mL in MeOH, 50 μL per 9 mm hole, 24 h 37 °C
Protocol: as §4

[8] = system: Sporobolomyces salmonicolor; assay: Disk diffusion test; type: cell-based; conditions: 1 mg/mL in MeOH, 50 μL per 9 mm hole, 24 h 37 °C; methanol alone 10 mm
Protocol: as §4

[9] = system: Penicillium notatum; assay: Disk diffusion test; type: cell-based; conditions: 1 mg/mL in MeOH, 50 μL per 9 mm hole, 24 h 37 °C; methanol alone 10 mm
Protocol: as §4

[10] = system: Pseudomonas aeruginosa SG 137; assay: Disk diffusion test; type: cell-based; conditions: 1 mg/mL in MeOH, 50 μL per 9 mm hole, 24 h 37 °C
Protocol: as §4

[11] = system: Staphylococcus aureus (MRSA) 134/94; assay: Disk diffusion test; type: cell-based; conditions: 1 mg/mL in MeOH, 50 μL per 9 mm hole, 24 h 37 °C
Protocol: as §4

[12] = system: Pseudomonas aeruginosa K799/61; assay: Disk diffusion test; type: cell-based; conditions: 1 mg/mL in MeOH, 50 μL per 9 mm hole, 24 h 37 °C
Protocol: as §4

[13] = system: Bacillus subtilis; assay: Disk diffusion test; type: cell-based; conditions: 1 mg/mL in MeOH, 50 μL per 9 mm hole, 24 h 37 °C
Protocol: as §4

[14] = system: Mycobacterium vaccae; assay: Disk diffusion test; type: cell-based; conditions: 1 mg/mL in MeOH, 50 μL per 9 mm hole, 24 h 37 °C
Protocol: as §4

[15] = system: Staphylococcus aureus SG 511; assay: Disk diffusion test; type: cell-based; conditions: 1 mg/mL in MeOH, 50 μL per 9 mm hole, 24 h 37 °C
Protocol: as §4

[16] = system: Escherichia coli; assay: Disk diffusion test; type: cell-based; conditions: 1 mg/mL in MeOH, 50 μL per 9 mm hole, 24 h 37 °C
Protocol: as §4

[17] = system: D. discoideum cells (AX2); assay: Amoebicidal activity against D. discoideum (cell count, CASY); type: cell-based; conditions: Dictyostelium discoideum; 72 h, 22 °C, average of two experiments
Protocol: Amoebicidal activity of keanumycin A against D. discoideum was determined using a previously published method. In brief, 3000 D. discoideum cells (AX2) were cultured in 96-well plates (Sarstedt) in 200 μL HL5 medium containing 1% DMSO (Carl Roth) and a specified amount of compound (starting from 0.5 μM; 2-fold serial dilution) in triplicates at 22° C. After 72 h the cell concentration was determined according to the manufacturers instruction using a CASY® Cell Counter+Analyser System (Model TT, Roche Innovatis AG) equipped with a 60 μm capillary and the evaluation cursor set to 7.5-17.5 μm. The viable cell concentration (including standard deviation) was plotted against the logarithmic concentration of the compound and the IC50 value was determined using PRISM (GraphPad, Version 5.03).

[18] = system: C. albicans homozygous knockout mutants; assay: Screen of homozygous knockout mutants for growth differences; type: cell-based, Candida albicans; conditions: absence vs presence of a sublethal concentration
Text: as §1

Compound: C/C=C1\NC(=O)[C@H]([C@H](C)O)NC(=O)[C@H](CCN)NC(=O)[C@@H](CCO)NC(=O)CNC(=O)[C@@H](CCN)NC(=O)[C@@H](NC(=O)C[C@H](O)[C@H](O)CCCCCCCCCCCC)COC(=O)[C@H]([C@H](O)CCl)NC(=O)[C@H]([C@H](O)C(=O)O)NC1=O [Keanumycin A, keanumycin A] (X1-S[dDab]G[d(hSer)][Dab][aThr][Dhb][Asp(3S-OH)][Thr(4-Cl)]; ester 1-C)
- splicing of HAC1 mRNA [1]: could not observe splicing in HAC1 mRNA
- MIC [2]: 1.72 µM (≈ 2.01 µg/mL)
- % fungal viability of C. albicans in infection model [3]: reduced C. albicans viability
- membrane permeabilization (SYTOX Green staining) [4]: permeabilizes the cell wall of the fungi
- membrane permeabilization (SYTOX Green staining) ([4]; listed as keanumycin A): staining of all cells
- concentration range protecting vaginal cells from damage by C. albicans [5]: 4 to 8 µg/mL
- Inhibition area diameter [6]: 12 mm
- Inhibition area diameter [7]: 30 mm
- Inhibition area diameter [8]: 28 mm
- Inhibition area diameter [9]: 26 mm
- Inhibition area diameter [10]: 0 mm
- Inhibition area diameter [11]: 0 mm
- Inhibition area diameter [12]: 0 mm
- Inhibition area diameter [13]: 11 mm
- Inhibition area diameter [14]: 13 mm
- Inhibition area diameter [15]: 10 mm
- Inhibition area diameter [16]: 0 mm
- IC50 [17]: 4.4 nM
- growth differences of knockout mutants [18]: most prominent growth differences were observed for Δmkc1, Δplb5, and Δpmt6
